Data: patent publication US8865623B2, “Herbicidally active cyclic diones and derivatives thereof, processes for their preparation, compositions, and method of controlling weeds” (Syngenta Limited, priority 2009, dated 2014)

Legend:
Format in all cases: in vivo
Avena fatua (AVEFA) [1] = assay: Post-emergence herbicidal activity, glasshouse pot test; conditions: Avena fatua, 312 h, rate 250 g/ha, evaluated after 13 days, glasshouse, read-out: Post-emergence activity AVEFA (100=total damage to plant; 0=no damage to plant)
How it was run: (§1)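 Plants in standard-soil pots, glasshouse at 24/16° C, 14 h photoperiod, 65% humidity. Aqueous spray (acetone/water 50:50 formulation, 0.5% Tween 20) applied pre-emergence at day 1 or post-emergence at day 8. Percent damage recorded after 13 days.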

[2] = tested on: Echinochloa crus-galli (ECHCG); assay: as above; conditions: Echinochloa crus-galli, 312 h, rate 250 g/ha, evaluated after 13 days, glasshouse, read-out: Post-emergence activity ECHCG (100=total damage to plant; 0=no damage to plant)
How it was run: as §1

Lolium perenne (LOLPE) [3] = assay: as above; conditions: Lolium perenne, 312 h, rate 250 g/ha, evaluated after 13 days, glasshouse, read-out: Post-emergence activity LOLPE (100=total damage to plant; 0=no damage to plant)
How it was run: as §1

[4] = tested on: Alopecurus myosuroides (ALOMY); assay: as above; conditions: Alopecurus myosuroides, 312 h, rate 250 g/ha, evaluated after 13 days, glasshouse, read-out: Post-emergence activity ALOMY (100=total damage to plant; 0=no damage to plant)
How it was run: as §1

Avena fatua (AVEFA) [5] = assay: Pre-emergence herbicidal activity, glasshouse pot test; conditions: Avena fatua, 312 h; Rate 250 g/ha; pre-emergence spray; evaluated after 13 days; read-out: Pre-emergence activity AVEFA (100=total damage to plant; 0=no damage to plant)
How it was run: as §1

[6] = tested on: Echinochloa crus-galli (ECHCG); assay: as above; conditions: Echinochloa crus-galli, 312 h; Rate 250 g/ha; pre-emergence spray; evaluated after 13 days; read-out: Pre-emergence activity ECHCG (100=total damage to plant; 0=no damage to plant)
How it was run: as §1

Lolium perenne (LOLPE) [7] = assay: as above; conditions: Lolium perenne, 312 h; Rate 250 g/ha; pre-emergence spray; evaluated after 13 days; read-out: Pre-emergence activity LOLPE (100=total damage to plant; 0=no damage to plant)
How it was run: as §1

[8] = tested on: Alopecurus myosuroides (ALOMY); assay: as above; conditions: Alopecurus myosuroides, 312 h; Rate 250 g/ha; pre-emergence spray; evaluated after 13 days; read-out: Pre-emergence activity ALOMY (100=total damage to plant; 0=no damage to plant)
How it was run: as §1

Row | Structure (SMILES) | pest or weed control at 250 g/ha (Avena fatua (AVEFA) [1]) [%] | pest or weed control at 250 g/ha [2] [%] | pest or weed control at 250 g/ha (Lolium perenne (LOLPE) [3]) [%] | pest or weed control at 250 g/ha [4] [%] | pest or weed control at 250 g/ha (Avena fatua (AVEFA) [5]) [%] | pest or weed control at 250 g/ha [6] [%] | pest or weed control at 250 g/ha (Lolium perenne (LOLPE) [7]) [%] | pest or weed control at 250 g/ha [8] [%]
1 | CCc1ccc(Oc2nc3ccccc3s2)cc1C1=C(O)[C@H]2CC[C@H](C2)C1=O [Example A-337] | 90 | 100 | 90 | 90 | 70 | 100 | 100 | 90
2 | CCc1ccc(Oc2ccc(C(F)(F)F)c(C#N)c2)cc1C1=C(O)CC2(CCOCC2)CC1=O [Example A-266] | 90 | 100 | 70 | 90 | 50 | 90 | 90 | 50
3 | CCc1ccc(Oc2c(F)cc(C#N)cc2F)cc1C1=C(O)C(C)(C)OC(C)(C)C1=O [Example A-166] | 20 | 60 | 20 | 30 | 20 | 40 | 10 | 20
4 | CCc1ccc(Oc2ccc(Cl)cc2C#N)cc1C1=C(O)C(C)(C)OC(C)(C)C1=O [Example A-224] | 50 | 70 | 70 | 50 | 10 | 20 | 30 | 20
5 | CCc1ccc(Oc2ccc(Cl)c(F)c2)cc1C1=C(O)CCCC1=O [Example A-68] | 40 | 100 | 60 | 60 | 30 | 100 | 70 | 30
6 | CCc1ccc(Oc2nc(F)c(Cl)c(OC)c2Cl)cc1C1=C(O)C(C)(C)OC(C)(C)C1=O [Example A-222] | 20 | 30 | 30 | 20 | 0 | 0 | 0 | 0
7 | CCc1ccc(Oc2ccc(Br)cc2)cc1C1=C(O)[C@H]2CC[C@H](C2)C1=O (single isomer, unassigned) [Example A-91] | 90 | 100 | 80 | 90 | 70 | 100 | 100 | 80
8 | CCc1ccc(Oc2cc(F)cc(F)n2)cc1C1=C(O)C(C)(C)OC(C)(C)C1=O [Example A-156] | 20 | 50 | 20 | 30 | 0 | 60 | 20 | 20
9 | CCc1ccc(Oc2ccc(F)cc2)cc1C1=C(O)[C@@H]2CC[C@](C)(C1=O)C2(C)C [Example A-239] | 10 | 70 | 30 | 20 | 0 | 90 | 60 | 20
10 | CCc1ccc(Oc2ccc(Cl)cc2[N+](=O)[O-])cc1C1=C(O)C(C)(C)OC(C)(C)C1=O [Example A-226] | 60 | 100 | 60 | 60 | 10 | 60 | 30 | 0
11 | CCc1ccc(Oc2ccc(Br)cc2)cc1C1=C(O)CCCC1=O [Example A-41] | 10 | 90 | 30 | 30 | 20 | 100 | 60 | 40
12 | CCc1ccc(Oc2nccc(C(F)(F)F)n2)cc1C1=C(O)C(C)(C)OC(C)(C)C1=O [Example A-108] | 70 | 100 | 50 | 60 | 40 | 80 | 70 | 40
13 | CCc1ccc(Oc2ccc(C(F)(F)F)c(C#N)c2)cc1C1=C(O)[C@H]2CC[C@H](C2)C1=O [Example A-340] | 80 | 100 | 70 | 60 | 50 | 100 | 70 | 80
14 | CCc1ccc(Oc2ccc(F)cc2Cl)cc1C1=C(O)CC(C)(C)CC1=O [Example A-70] | 10 | 70 | 10 | 30 | 10 | 100 | 50 | 60
15 | CCc1ccc(Oc2ccc([N+](=O)[O-])cc2C(F)(F)F)cc1C1=C(O)CC(C)(C)CC1=O [Example A-294] | 40 | 80 | 20 | 40 | 0 | 90 | 70 | 60
16 | CCc1ccc(Oc2ccc3cc(Cl)ccc3n2)cc1C1=C(O)[C@@H]2CC[C@](C)(C1=O)C2(C)C [Example A-235] | 100 | 100 | 100 | 90 | 30 | 100 | 70 | 50
17 | CCc1ccc(Oc2ncc(Cl)cc2[N+](=O)[O-])cc1C1=C(O)C(C)(C)OC(C)(C)C1=O [Example A-162] | 50 | 90 | 70 | 80 | 10 | 60 | 50 | 30
18 | CCc1ccc(Oc2ccc(F)c(Cl)c2)cc1C1=C(O)C(C)(C)OC(C)(C)C1=O [Example A-24] | 70 | 100 | 70 | 70 | 40 | 90 | 90 | 30
19 | CCc1ccc(Oc2ncc(Cl)cc2Cl)cc1C1=C(O)C(C)(C)OC(C)(C)C1=O [Example A-44] | 100 | 100 | 100 | 100 | 100 | 100 | 100 | 100
20 | CCc1ccc(Oc2cc(F)ccc2C#N)cc1C1=C(O)C(C)(C)OC(C)(C)C1=O [Example A-117] | 30 | 100 | 40 | 80 | 0 | 20 | 20 | 0
